Data: patent publication US20060240048A1 (priority 2002, published 2006)

Target: T1, human cannabinoid CB2 receptor (Homo sapiens, UniProt P34972)
T1 construct: expressed in transfected cells; host or cells: Saccharomyces cerevisiae strain MMY23
Assay: Cannabinoid CB2 receptor agonist activity, yeast reporter assay (FDGlu fluorescence);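 for Emax: 100% equals maximal response of reference agonist HU210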
Type: cell-based
Settings: for Emax: read-out: efficacy value (Emax) at the cloned human cannabinoid CB2 receptor
Description: The cannabinoid CB2 receptor agonist activity of the compounds of formula (I) was determined in accordance with the following experimental method.
Yeast (Saccharomyces cerevisiae) cells expressing the human cannabinoid CB2 receptor were generated by integration of an expression cassette into the ura3 chromosomal locus of yeast strain MMY23. This cassette consisted of DNA sequence encoding the human CB2 receptor flanked by the yeast GPD promoter to the 5′ end of CB2 and a yeast transcriptional terminator sequence to the 3′ end of CB2. MMY23 expresses a yeast/mammalian chimeric G-protein alpha subunit in which the C-terminal 5 amino acids of Gpa1 are replaced with the C-terminal 5 amino acids of human Gαi3 (as described in Brown et al. (2000), Yeast 16:11-22). Cells were grown at 30° C. in liquid Synthetic Complete (SC) yeast media (Guthrie and Fink (1991), Methods in Enzymology, Vol. 194) lacking uracil, tryptophan, adenine and leucine to late logarithmic phase (approximately 6 OD600/ml).
Agonists were prepared as 10 mM stocks in DMSO. […] Agonist solutions in DMSO (1% final assay volume) were transferred into black, clear bottom, microtitre plates from NUNC (96- or 384-well). […] This mixture (50 ul per well for 384-well plates, 200 ul per well for 96-well plates) was added to agonist in the assay plates (Multidrop 384, Labsystems). After incubation at 30° C. for 24 hours, fluorescence resulting from degradation of FDGlu to fluorescein due to exoglucanase, an endogenous yeast enzyme produced during agonist-stimulated cell growth, was determined using a Spectrofluor microtitre plate reader (Tecan; excitation wavelength: 485 nm; emission wavelength: 535 nm). Fluorescence was plotted against compound concentration and iteratively curve fitted using a four parameter fit to generate a concentration effect value.
where Max[compound X] and Min[compound X] are the fitted maximum and minimum respectively from the concentration effect curve for compound X, and Max[HU210] and Min[HU210] are the fitted maximum and minimum respectively from the concentration effect curve for (6aR,10aR)-3-(1,1′-Dimethylheptyl)-6a,7,10,10a-tetrahydro-1-hydroxy-6,6-dimethyl-6H-dibenzo[b,d]pyran-9-methanol (HU210; available from Tocris). Equieffective molar ratio (EMR) values were calculated from the equation EMR=EC50 [compound X]/EC50 [HU210]
Where EC50 [compound X] is the EC50 of compound X and EC50 [HU210] is the EC50 of HU210.

T1 sequence (P34972 whole entry): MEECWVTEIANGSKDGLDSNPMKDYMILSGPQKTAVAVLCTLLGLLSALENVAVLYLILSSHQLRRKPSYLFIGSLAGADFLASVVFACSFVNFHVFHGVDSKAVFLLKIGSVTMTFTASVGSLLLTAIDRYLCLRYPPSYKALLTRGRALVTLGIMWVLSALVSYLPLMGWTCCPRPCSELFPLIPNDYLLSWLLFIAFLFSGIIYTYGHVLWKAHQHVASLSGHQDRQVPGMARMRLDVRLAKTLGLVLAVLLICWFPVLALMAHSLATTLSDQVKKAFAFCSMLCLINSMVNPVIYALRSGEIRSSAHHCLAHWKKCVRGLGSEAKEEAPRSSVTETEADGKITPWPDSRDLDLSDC

| SMILES | EC50 [nM] | Emax [%] |
| --- | --- | --- |
| COc1cccc(Nc2cc(C(C)C)c(C(=O)NCC3CCC3)cn2)c1 [Example 38, N-Cyclobutylmethyl-4-isopropyl-6-(3-methoxy-phenylamino)-nicotinamide] | < 300 | > 50 |
| CC(C)c1cc(Nc2cccc(F)c2)ncc1C(=O)NCC1CCOCC1 [Example 39, 6-(3-Fluoro-phenylamino)-4-isopropyl-N-(tetrahydro-pyran-4-ylmethyl)-nicotinamide] |  | > 50 |
| COc1cccc(Nc2cc(C(C)C)c(C(=O)NCC3CCOCC3)cn2)c1 [Example 41, 4-Isopropyl-6-(3-methoxy-phenylamino)-N-(tetrahydro-pyran-4-ylmethyl)-nicotinamide] |  | > 50 |
| CC(C)c1cc(N(C)c2ccc(Cl)c(Cl)c2)ncc1C(=O)NCC1CCOCC1 [Example 44, 6-[(3,4-Dichloro-phenyl)-methyl-amino]-4-isopropyl-N-(tetrahydro-pyran-4-ylmethyl)-nicotinamide] |  | > 50 |
| CC(C)c1cc(Nc2cccc(Cl)c2)ncc1C(=O)NC1CCC1 [Example 50, 6-(3-Chloro-phenylamino)-N-cyclobutyl-4-isopropyl-nicotinamide] | < 300 | > 50 |
| CC(C)c1cc(Nc2cccc(Cl)c2)ncc1C(=O)NCC1CC1 [Example 51, 6-(3-Chloro-phenylamino)-N-cyclopropylmethyl-4-isopropyl-nicotinamide] | < 300 | > 50 |
| CCC(CC)CNC(=O)c1cnc(Nc2cccc(Cl)c2)cc1C(C)C [Example 52, 6-(3-Chloro-phenylamino)-N-(2-ethyl-butyl)-4-isopropyl-nicotinamide] |  | > 50 |
| CC(C)c1cc(Nc2cccc(Cl)c2)ncc1C(=O)NC1CCCCC1 [Example 53, 6-(3-Chloro-Phenylamino)-N-cyclohexyl-4-isopropyl-nicotinamide] | < 300 | > 50 |
| CC(C)c1cc(Nc2cccc(Cl)c2)ncc1C(=O)NCC1(O)CCCCC1 [Example 54, 6-(3-Chloro-phenylamino)-N-(1-hydroxy-cyclohexylmethyl)-4-isopropyl-nicotinamide] | < 300 | > 50 |
| CC(C)c1cc(Nc2cccc(Cl)c2)ncc1C(=O)N1CCCCC1 [Example 55, 1-[6-(3-Chloro-phenylamino)-4-isopropyl-pyridin-3-yl]-1-piperidin-1-yl-methanone] | < 300 | > 50 |
| COCCNC(=O)c1cnc(Nc2cccc(Cl)c2)cc1C(C)C [Example 57, 6-(3-Chloro-phenylamino)-4-isopropyl-N-(2-methoxy-ethyl)-nicotinamide] |  | > 50 |
| CC(C)c1cc(Nc2cccc(Cl)c2)ncc1C(=O)NC1CCOCC1 [Example 58, 6-(3-Chloro-phenylamino)-4-isopropyl-N-(tetrahydro-pyran-4-yl)-nicotinamide] |  | > 50 |
| CC(C)(C)c1cc(Nc2cccc(Cl)c2)ncc1C(=O)NCC1CCCCC1 [Example 69, 4-tert-Butyl-6-(3-chloro-phenylamino)-N-cyclohexylmethyl-nicotinamide] | < 300 | > 50 |
| CC(C)(C)c1cc(Nc2ccc(Cl)cc2Cl)ncc1C(=O)NCC1CCCCC1 [Example 70, 4-tert-Butyl-6-(2,4-dichloro-phenylamino)-N-cyclohexylmethyl-nicotinamide] | < 300 | > 50 |
| CC(C)(C)c1cc(Nc2cccc(Cl)c2)ncc1C(=O)NCC1CCOCC1 [Example 71, 4-tert-Butyl-6-(3-phenylamino)-N-(tetrahydro-pyran-4-ylmethyl)-nicotinamide] | < 300 | > 50 |
| CC(C)(C)c1cc(Nc2cccc(F)c2)ncc1C(=O)NCC1CCOCC1 [Example 72, 4-tert-Butyl-6-(3-fluoro-phenylamino)-N-(tetrahydro-pyran-4-ylmethyl)-nicotinamide] | < 300 | > 50 |
| CC(C)c1cc(Nc2cc(Cl)cc(Cl)c2)ncc1C(=O)NCC1CCOCC1 [Example 75, 6-(3,5-Dichloro-phenylamino)-4-isopropyl-N-(tetrahydro-pyran-4-ylmethyl)-nicotinamide] | < 300 | > 50 |

| SMILES | EC50 [nM] | Emax [%] |
| --- | --- | --- |
| CC(C)c1cc(Nc2cc(Cl)ccc2F)ncc1C(=O)NCC1CCOCC1 [Example 76, 6-(5-Chloro-2-fluoro-phenylamino)-4-isopropyl-N-(tetrahydro-pyran-4-ylmethyl)-nicotinamide] | < 300 | > 50 |
| CC(C)c1cc(Nc2ccc(F)c(Cl)c2)ncc1C(=O)NCC1CCOCC1 [Example 77, 6-(3-Chloro-4-fluoro-phenylamino)-4-isopropyl-N-(tetrahydro-pyran-4-ylmethyl)-nicotinamide] | < 300 | > 50 |
| CC(C)c1cc(Nc2ccc(OC(F)(F)F)c(Cl)c2)ncc1C(=O)NCC1CCOCC1 [Example 78, 6-(3-Chloro-4-trifluoromethoxy-phenylamino)-4-isopropyl-N-(tetrahydro-pyran-4-ylmethyl)-nicotinamide] | < 300 | > 50 |
| CC(C)c1cc(Nc2ccc(C#N)c(Cl)c2)ncc1C(=O)NCC1CCOCC1 [Example 79, 6-(3-Chloro-4-cyano-phenylamino)-4-isopropyl-N-(tetrahydro-pyran-4-ylmethyl) nicotinamide] |  | > 50 |
| CC(C)c1cc(Nc2cc(F)cc(C(F)(F)F)c2)ncc1C(=O)NCC1CCOCC1 [Example 80, 6-(3-Fluoro-5-trifluoromethyl-phenylamino)-4-isopropyl-N-(tetrahydro-pyran-4-ylmethyl) nicotinamide] | < 300 | > 50 |
| CC(C)c1cc(Nc2cccc(C(F)(F)F)c2F)ncc1C(=O)NCC1CCOCC1 [Example 81, 6-(2-Fluoro-3-trifluoromethyl-isopropyl-N-phenylamino)-4-(tetrahydro-pyran-4-ylmethyl) nicotinamide] |  | > 50 |
| CC(C)c1cc(Nc2ccc(Br)cc2Cl)ncc1C(=O)NCC1CCOCC1 [Example 82] | < 300 | > 50 |
| CC(C)c1cc(Nc2ccc(Cl)cc2Br)ncc1C(=O)NCC1CCOCC1 [Example 83, 6-(2-Bromo-4-chloro-phenylamino)-4-isopropyl-N-(tetrahydro-pyran-4-ylmethyl) nicotinamide] | < 300 | > 50 |
| Cc1c(Nc2cc(C(C)C)c(C(=O)NCC3CCOCC3)cn2)cccc1C(F)(F)F [Example 84, 4-lsopropyl-6-(2-methyl-3-trifluoromethyl-phenylamino)-N-(tetrahydro-pyran-4-ylmethyl)-nicotinamide] | < 300 | > 50 |
| Cc1ccc(Nc2cc(C(C)C)c(C(=O)NCC3CCOCC3)cn2)cc1Cl [Example 85] | < 300 | > 50 |
| Cc1cc(Nc2cc(C(C)C)c(C(=O)NCC3CCOCC3)cn2)ccc1Br [Example 86, 6-(4-Bromo-3-methyl-phenylamino)-4-isopropyl-N-(tetrahydro-pyran-4-ylmethyl)-nicotinamide] | < 300 | > 50 |
| CC(C)c1cc(Nc2cc(Cl)ccc2Cl)ncc1C(=O)NCC1CCOCC1 [Example 87, 6-(2,5-Dichloro-phenylamino)-4-isopropyl-N-(tetrahydro-pyran-4-ylmethyl)-nicotinamide] | < 300 | > 50 |
| Cc1ccc(C(F)(F)F)cc1Nc1cc(C(C)C)c(C(=O)NCC2CCOCC2)cn1 [Example 88, 4-lsopropyl-6-(2-methyl-5-trifluoromethyl-phenylamino)-N-(tetrahydro-pyran-4-ylmethyl)-nicotinamide] | < 300 | > 50 |
| CC(C)c1cc(Nc2ccc(Cl)cc2Br)ncc1C(=O)NCC1CCCC1 [Example 89, 6-(2-Bromo-4-chloro-phenylamino)-N-cyclopentylmethyl-4-isopropyl-nicotinamide] | < 300 | > 50 |
| CC(C)c1cc(Nc2ccc(Br)c(Cl)c2)ncc1C(=O)NCC1CCOCC1 [Example 90, 6-(4-Bromo-3-chloro-phenylamino)-4-isopropyl-N-(tetrahydro-pyran-4-ylmethyl)-nicotinamide] | < 300 | > 50 |
| CC(C)c1cc(Nc2ccc(Cl)cc2F)ncc1C(=O)NCC1CCCC1 [Example 91, 6-(4-Chloro-2-fluoro-phenylamino)-N-cyclopentylmethyl-4-isopropyl-nicotinamide] | < 300 | > 50 |
| CC(C)c1cc(Nc2ccc(C(F)(F)F)c(F)c2)ncc1C(=O)NCC1CCCC1 [Example 92, N-Cyclopentylmethyl-6-(3-fluoro-4-trifluoromethyl-phenylamino)-4-isopropyl-nicotinamide] | < 300 | > 50 |
